Laboratory results from patent US8916131B2, “Radiopharmaceutical composition” (GE Healthcare Limited, priority 2007, dated 2014).

Assays:
[1] = Loss of Compound 1 to dispensing kit components (syringe, silicone tube, hard tube, filter), evaluated by HPLC; type: physicochemical; conditions: 7% v/v ethanol
Description: Solutions were prepared containing 7% v/v ethanol in 0.01 M sodium phosphate buffer at pH 7.4, 75 μg of Compound 1 and either (i) 12% v/v propylene glycol (PG) or (ii) 10% v/v polyethylene glycol 400 (PEG 400). Percentage loss of Compound 1 to various components of a dispensing kit was evaluated by High Performance Liquid Chromatography (HPLC) in the following experiments: […]

[2] = Compound 1 adsorption (loss) to various silicone tubings with polysorbate 80; type: physicochemical
Description: Solutions were prepared containing 7% v/v ethanol in 10 mM sodium phosphate buffer at pH 7.4, 75 μg of Compound 1 and selected v/v % amounts of polysorbate 80. Various silicone tubing types were tested as follows: [table] The percentage loss of Compound 1 onto the tubing was calculated in each experiment. Fluorine was assayed before and after the passage through tubing, and the results were as follows: […]

CNc1ccc(-c2nc3ccc(O)cc3s2)cc1[18F] [Compound 1, 2-[3-[^18F]fluoro-4-(methylamino)phenyl]-6-hydroxy-benzothiazole]
% loss ([1]; 10% v/v PEG 400, filter, 11 sec, 9.5 ml, 0.01 M phosphate pH 7.4): 51%
% loss ([1]; 10% v/v PEG 400, hard tube, 5 min 4 sec, ~2-2.5 ml, 0.01 M phosphate pH 7.4): 4%
% loss ([1]; 10% v/v PEG 400, silicone tube, 2 min 2 sec, ~1-1.5 ml, 0.01 M phosphate pH 7.4): 8%
% loss ([1]; 10% v/v PEG 400, syringe, 1 min 1 sec, 9.5 ml, 0.01 M phosphate pH 7.4): 1%
% loss ([1]; 12% v/v PG, filter, 10 sec, 9.5 ml, 0.01 M phosphate pH 7.4): 87%
% loss ([1]; 12% v/v PG, hard tube, 5 min 2 sec, ~2-2.5 ml, 0.01 M phosphate pH 7.4): 3%
% loss ([1]; 12% v/v PG, silicone tube, 2 min 23 sec, ~1-1.5 ml, 0.01 M phosphate pH 7.4): 30%
% loss ([1]; 12% v/v PG, syringe, 1 min 4 sec, 9.5 ml, 0.01 M phosphate pH 7.4, 75 μg Compound 1): 0%
% Loss Compound 1 ([2]; Experiment 1: 0.8 × 4.0 Pt-cured silicone tubing, polysorbate 80 0 v/v %, 2 min 0 sec, 350 μl): 63%
% Loss Compound 1 ([2]; Experiment 2: 1.6 × 4.8 Pt-cured silicone tubing, polysorbate 80 0 v/v %, 2 min 7 sec, 1400 μl): 41%
% Loss Compound 1 ([2]; Experiment 3: 1.6 × 4.8 Perox-cured silicone tubing, polysorbate 80 0 v/v %, 2 min 6 sec, 1400 μl): 45%
% Loss Compound 1 ([2]; Experiment 4: 0.8 × 4.0 Pt-cured silicone tubing, polysorbate 80 1 v/v %, 2 min 3 sec, 350 μl): 0%
% Loss Compound 1 ([2]; Experiment 5: 1.6 × 4.8 Pt-cured silicone tubing, polysorbate 80 1 v/v %, 2 min 10 sec, 1400 μl): 1%
% Loss Compound 1 ([2]; Experiment 6: 1.6 × 4.8 Perox-cured silicone tubing, polysorbate 80 1 v/v %, 2 min 4 sec, 1400 μl): 0%
% Loss Compound 1 ([2]; Experiment 7: 0.8 × 4.0 Pt-cured silicone tubing, polysorbate 80 5 v/v %, 2 min 2 sec, 350 μl): 0%
% Loss Compound 1 ([2]; Experiment 8: 1.6 × 4.8 Pt-cured silicone tubing, polysorbate 80 5 v/v %, 2 min 4 sec, 1400 μl): 1%
% Loss Compound 1 ([2]; Experiment 9: 1.6 × 4.8 Perox-cured silicone tubing, polysorbate 80 5 v/v %, 2 min 1 sec, 1400 μl): 1%
